In US9173898B2, “Methods of treating giardiasis” (THE UNITED STATES OF AMERICA, as represented by the …, priority 2010, dated 2015):
In brackets after ≈: the same amount, converted by molar mass. Like-named read-outs stand apart in the source and are kept apart here.

Legend:
[1] = system: Giardia lamblia GS isolate; assay: Trophozoite enumeration assay; assay type: cell-based; conditions: G. lamblia GS isolate, 48 hrs, cell counting in hemocytometer
Method: Giardia lamblia GS isolate was plated into sterile 96-well black clear-bottom assay plates at 10,000 cells/well density and 120 μL/well volume in culture media. Compounds tested were prepared as 50 mM DMSO solutions in a 12 point 1:3 titration series in DMSO, with exceptions being carbadox, Bortezomib and BTO-1, which were used at 10 mM top concentration due to solubility limitations. Compound titration series were added to duplicate assay wells as 0.5 μL/well and the assay plates were incubated anaerobically in Type A Bio-Bag (BD Diagnostics) for 48 hrs at 37° C. Cell density was visually scored in each well and the 6 wells surrounding the visually determined IC50 concentrations were quantitated by cell counting. For enumeration, trophozoites were detached on ice for 30 min and resuspended via pipetting. 75 μL of culture was removed from each well, mixed with 65 μL of 0.4% Trypan Blue and 10 μL of 30% bleach (final concentration of 2% bleach) to immobilize trophozoites. Trophozoites were then counted in a hemocytometer.

[2] = system: Giardia WB; assay: Giardia viability (ATP content) assay in 1536-well format; assay type: cell-based, Giardia lamblia; conditions: for IC50: concentration at which 50% of DMSO control ATP levels are detected, 48 hours, 1536-well; for Giardia WB Efficacy / Emax: percent reduction in ATP levels compared with 38.3 mM Mnz at maximal compound concentration; for Emax: 48 h, read-out: Giardia WB Efficacy; for EC50: 1536-well (FIG. 2a), read-out: Calculated EC50
Method: (§1) For the viability assay in 1536-well format, 2 μL media was dispensed per well into 1536-well white solid-bottom plates using a Multidrop Combi dispenser (Thermo Scientific). Subsequently, 23 nL/well compound solutions or DMSO controls were dispensed to the assay plates containing media via a pintool workstation (Kalypsys, San Diego). Trophozoites were chilled on ice to detach from glass tubes, and unless otherwise noted, were diluted to 250,000 trophozoites/mL with ice cold media. The trophozoite suspension was kept on ice and dispensed as 4 μL/well with the Multidrop Combi dispenser. Attachment of trophozoites to dispensing apparatus was avoided with continuous dispensing and icing of the trophozoite suspension. The plates were covered with plastic low-evaporation lids, individually sealed in Type A Bio-Bags and incubated at 37° C. for 48 hours. Following incubation, 4 μL/well of ATPLite reagent was dispensed with the Multidrop Combi dispenser. The assay plates were briefly centrifuged at 1000 RPM and luminescence signal was detected on a ViewLux plate reader (PerkinElmer) after 20 min incubation at room temperature. Signal-to-basal (S/B) ratio, Z′ factor and coefficient of variation (CV) were calculated from 32 wells with 0.38% DMSO (total signal) and 32 well with 38.3 μM Mnz (basal signal).
Assay miniaturization in 1,536-well plate format was undertaken to increase throughput and facilitate screening of large compound libraries. The volume of trophozoites suspension was reduced to 6 μL/well and the ATP detection reagent was reduced to 4 μL/well in the 1536-well assay plates. […] The 100 trophozoites/well density was selected for further experiments to reduce the preparation work of Giardia cultures. Following these conditions, a DMSO test plate was used to assess the statistical parameters of the assay in the 1,536-well plate format.
Using the above established conditions in 1536-well format, each compound of the invention was tested at 5 concentration points, ranging from 61 nM-38.3 μM in a 1:5 dilution ratio (Inglese, J., D. S. Auld, A. Jadhav, R. L. Johnson, A. Simeonov, A. Yasgar, W. Zheng, and C. P. Austin. 2006. Quantitative high-throughput screening: a titration-based approach that efficiently identifies biological activities in large chemical libraries. Proc Natl Acad Sci USA 103:11473-8).

[3] = system: G. lamblia GS isolate; assay: ATP content assay against G. lamblia GS isolate; assay type: cell-based, Giardia lamblia
Method: as §1
As a further confirmatory step, some compounds that were commercially available were purchased as powder samples and tested against the G. lamblia GS isolate using both the ATP content and enumeration assays (Table 3).

[4] = system: CHO cells; assay: CHO cell cytotoxicity assay in 1536-well format (ATP content counter-screen); assay type: cell-based, Chinese hamster; conditions: for CHO Efficacy: percent reduction in ATP levels compared with 38.3 mM camptothecin at maximal compound concentration; for Emax: Cricetulus griseus, CHO, 48 h, percent reduction in ATP levels compared with 38.3 µM camptothecin at maximal compound concentration, read-out: CHO Efficacy
[5] = system: CHO cells; assay: as above; assay type: cell-based, Chinese hamster; conditions: concentration at which 50% of DMSO control ATP levels are detected, 48 hours
Method: For the viability assay in 1536-well format, 2 μL media was dispensed per well into 1536-well white solid-bottom plates using Multidrop Combi dispenser. Subsequently, 23 nL/well compound solutions or DMSO controls were dispensed to the assay plates via a pintool workstation. The Chinese hamster ovary (CHO) cells were grown in T225 flasks to 70% confluence under a standard cell culture condition (ATCC), detached with 0.25% Trypsin/EDTA, and seeded at 250 cells/well in 4 μL media (Dulbecco's Modified Eagle Medium, 10% fetal bovine serum, 1× penicillin/streptomycin). The plates were incubated at 37° C. with 5% CO2 and 95% humidity for 48 hours. Subsequently, ATP content was measured following the addition of 4 μL/well of ATPLite reagent and a 20 min incubation on a ViewLux plate reader.
Data from the CHO cell counter-screen underwent the same initial analysis, with the exception that raw luminescence counts were normalized relative to DMSO only wells (0% activity) and 38.3 μM camptothecin treated wells (100% activity).
CHO cells, commonly used in high throughput compound screening, were selected to determine the cytotoxicity of the compounds towards a mammalian cell line.

[6] = system: Giardia lamblia GS isolate; assay: Minimum Lethal Concentration (MLC) determination; assay type: cell-based; conditions: 3 days with compound, then 3 days regrowth without compound, tube without any live organisms
Method: Giardia lamblia GS isolate was used throughout the Minimal Lethal Concentration (MLC) experiments. Organisms were grown and maintained in TYI-S-33 medium supplemented with bile and antibiotics (Keister, 1983). Cidal activity was determined in 96-well culture plates (Corning Incorporated) followed by Giardia trophozoites regrowth in 8 ml tubes (Fisher Scientific). Dry compounds were dissolved in DMSO (Sigma) at stock concentration of 10 mM and then added to the growth media to ensure final DMSO concentration of no more than 0.5%. 100 μl of the compound solutions were placed in the wells by serial dilutions. 10 μl of Giardia trophozoites containing 10000 organisms were then added. Serial dilutions of metronidazole served as the positive control and the DMSO-containing medium served as the negative control. Plates were incubated under anaerobic conditions in sealed bags (Becton Dickinson and Company) at 37° C. for 3 days and surveyed visually under microscope to check survival, mobility and attachment of trophozoites. The plate was chilled on ice for 30 min and the entire contents of 4 wells in the growth/death transition were transferred into the 8 ml tubes containing growth media only (without the compound). After 3 days of incubation at 37° C., tubes were checked under microscope for any surviving trophozoites. MLC was attributed to the tube without any live organisms. See, e.g., Keister, D. B. 1983. Axenic culture of Giardia lamblia in TYI-S-33 medium supplemented with bile. Trans. Soc. Trop. Med. Hyg. 77:487-488.

[7] = system: G. lamblia WB trophozoite; assay: Giardia viability (ATP content) assay in 96-well format; assay type: cell-based, Giardia lamblia
Method: Giardia trophozoites were plated at a density of 2500 cells/well in 120 μL media in sterile 96-well black clear-bottom assay plates. Mnz was serially diluted from 100 mM stock solution 1:4 in DMSO and then 0.5 μL/well of Mnz titrations or DMSO control were transferred in duplicates to the assay wells using a multichannel pipette. The assay plates were covered with plastic low-evaporation lids and individually sealed with anaerobic generators (Type A Bio-Bag, BD Diagnostics) to create anaerobic growth environment. The sealed Bio-Bags were incubated at 37° C. for indicated periods. Following incubation, 80 μL/well of the ATPLite reagent (PerkinElmer) was added to the assay plates for one-step lysis and ATP level detection. The plates were centrifuged briefly (1000 RPM, 30 seconds) and incubated at room temperature for 20 min. The luminescent signals of assay plates were measured on a ViewLux plate reader (PerkinElmer). Signal-to-basal (S/B) ratios and Z′ factors were calculated from 8 wells containing 0.42% DMSO (total signal) and 8 wells containing 41.7 μM Mnz (basal signal).
A commercially available ATP detection kit to measure the viability of G. lamblia after compound treatment. […] The DMSO tolerance of trophozoites was assessed in this assay as DMSO is used to dissolve the compounds in the library. […]

[8] = G. lamblia GS isolate, purchased powder samples
[9] = G. lamblia GS isolate, purchased powder samples, read-out: ATP Content IC50
[10] = Giardia duodenalis, G. lamblia GS isolate, purchased powder samples, read-out: ATP Content IC50
[11] = Giardia duodenalis, Table 2, screen, read-out: Giardia GS IC50

Row | IC50 ([1]; Giardia duodenalis) [nM] | IC50 [3, 10] [nM] | IC50 [3, 11] [nM] | Compound | IC50 [1] [nM] | IC50 [2] [nM] | Giardia WB Efficacy [2] [%] | ATP Content Efficacy [3, 8] [%] | IC50 [3, 9] [nM] | CHO Efficacy [4] [%] | IC50 [5] [nM] | MBC ([6]; Giardia duodenalis, 72 h) [µM] | Emax ([2]; Giardia) [%] | IC50 ([2]; Giardia) [nM] | Emax [4] [%] | IC50 ([5]; Cricetulus griseus, CHO) [nM] | also measured
1 | 290 | 240 | 2830 | COC(=O)N/N=C/c1c[n+]([O-])c2ccccc2[n+]1[O-] [Carbadox] |  |  |  | 99.4 |  |  |  | 4.6 (≈ 1.21 µg/mL) | 86.6 | 5460 | 6.3 | > 100000 | 
2 | 70 | 150 | 100 | Nc1ncn([C@H]2C[C@H](O)[C@@H](CO)O2)c(=O)n1 [Decitabine, 5-Aza-2′-deoxycytidine] |  |  |  | 95.1 |  |  |  | 2.6 (≈ 0.593 µg/mL) | 81.2 | 970 | -52.2 | 24400 | 
3 | 32900 | 12700 |  | O=C(Nc1ccccc1)c1cc([N+](=O)[O-])ccc1Cl [GW9662] |  |  |  | 99.2 |  |  |  | 208 (≈ 57.5 µg/mL) | 86.4 | 6870 | 8.5 | > 100000 | 
4 | 2200 | 1600 |  | Cc1ncc([N+](=O)[O-])n1CCO [Metronidazole] |  |  |  | 99.7 |  |  |  | 7.7 (≈ 1.32 µg/mL) |  |  |  |  | EC50 ([2]; Giardia, 100 cells/well Giardia density): 2900 nM; EC50 ([2]; Giardia, 200 cells/well Giardia density): 2900 nM; EC50 ([2]; Giardia, 300 cells/well Giardia density): 2100 nM; ATP content relative to DMSO control values ([7]; 41.7 μM Mnz treatment, all time points tested (FIG. 1a)): < 5%; IC50 ([7]; Giardia duodenalis, 96-well format, 48 hr (FIG. 1c), read-out: IC50 of inhibition of the ATP content signal): 2100 nM

The remaining lines, values behind:

Row | Compound | IC50 ([1]; Giardia duodenalis) [nM] | IC50 [3, 10] [nM] | IC50 [3, 11] [nM] | IC50 [1] [nM] | IC50 [2] [nM] | Giardia WB Efficacy [2] [%] | ATP Content Efficacy [3, 8] [%] | IC50 [3, 9] [nM] | CHO Efficacy [4] [%] | IC50 [5] [nM] | MBC ([6]; Giardia duodenalis, 72 h) [µM] | Emax ([2]; Giardia) [%] | IC50 ([2]; Giardia) [nM] | Emax [4] [%] | IC50 ([5]; Cricetulus griseus, CHO) [nM] | also measured
5 | N#Cc1cc([N+](=O)[O-])c2sc(C(N)=O)[n+]([O-])c2c1 [BTO-1] |  |  |  | 9300 | 1730 | 72.3 | 99.1 | 2000 | 32.2 | 68800 |  |  |  |  |  | 
6 | CC(C)C[C@H](NC(=O)[C@H](Cc1ccccc1)NC(=O)c1cnccn1)B(O)O [Bortezomib] | 130 | 60 |  |  |  |  | 98.5 |  |  |  | 0.51 (≈ 0.196 µg/mL) |  |  |  |  | 
7 | CO[C@@H]1[C@H](OC(=O)/C=C/C=C/C=C/C=C/C(=O)O)CC[C@]2(CO2)[C@H]1[C@@]1(C)O[C@@H]1CC=C(C)C [Fumagillin] | 3 | 2 | 2 |  |  |  | 98.9 |  |  |  | 0.257 (≈ 0.118 µg/mL) | 83.4 | 10 | -1.9 | > 100000 | 
8 | O=[N+]([O-])c1ccc([As](=O)(O)O)cc1 [Nitarsone] |  |  |  | 1200 | 430 | 97.0 | 99.6 | 900 | −13.5 | > 100000 |  |  |  |  |  | MBC [6]: 2.6 µM; IC50 ([3]; Table 2, screen, read-out: Giardia GS IC50): 1260 nM
9 | hydroxocobalamin acetate [Hydroxocobalam in Acetate] |  |  |  | 54200 | 13700 | 92.2 | 98.4 | 78300 | 16.1 | > 100000 |  |  |  |  |  | MBC [6]: >208 µM
